Test results from US20070111929A1, “Methods for the treatment of anxiety and for identification of anxiolytic agents” (Wyeth, priority 2005, published 2007).

Experiments:
[1] = biological target: T1, AT4 receptor (Mus musculus, UniProt Q8C129); test: mouse 4-plate model of anxiety, AT4 alone (Example 1); assay type: in vivo; conditions: acute; for number of punished crossings compared to vehicle: subcutaneous, 30 min before test, male Swiss Webster mice
T1 construct: from tissue; host or cells: whole living Swiss Webster mouse (in vivo behavioural test)
T1 sequence (Q8C129 1-1025): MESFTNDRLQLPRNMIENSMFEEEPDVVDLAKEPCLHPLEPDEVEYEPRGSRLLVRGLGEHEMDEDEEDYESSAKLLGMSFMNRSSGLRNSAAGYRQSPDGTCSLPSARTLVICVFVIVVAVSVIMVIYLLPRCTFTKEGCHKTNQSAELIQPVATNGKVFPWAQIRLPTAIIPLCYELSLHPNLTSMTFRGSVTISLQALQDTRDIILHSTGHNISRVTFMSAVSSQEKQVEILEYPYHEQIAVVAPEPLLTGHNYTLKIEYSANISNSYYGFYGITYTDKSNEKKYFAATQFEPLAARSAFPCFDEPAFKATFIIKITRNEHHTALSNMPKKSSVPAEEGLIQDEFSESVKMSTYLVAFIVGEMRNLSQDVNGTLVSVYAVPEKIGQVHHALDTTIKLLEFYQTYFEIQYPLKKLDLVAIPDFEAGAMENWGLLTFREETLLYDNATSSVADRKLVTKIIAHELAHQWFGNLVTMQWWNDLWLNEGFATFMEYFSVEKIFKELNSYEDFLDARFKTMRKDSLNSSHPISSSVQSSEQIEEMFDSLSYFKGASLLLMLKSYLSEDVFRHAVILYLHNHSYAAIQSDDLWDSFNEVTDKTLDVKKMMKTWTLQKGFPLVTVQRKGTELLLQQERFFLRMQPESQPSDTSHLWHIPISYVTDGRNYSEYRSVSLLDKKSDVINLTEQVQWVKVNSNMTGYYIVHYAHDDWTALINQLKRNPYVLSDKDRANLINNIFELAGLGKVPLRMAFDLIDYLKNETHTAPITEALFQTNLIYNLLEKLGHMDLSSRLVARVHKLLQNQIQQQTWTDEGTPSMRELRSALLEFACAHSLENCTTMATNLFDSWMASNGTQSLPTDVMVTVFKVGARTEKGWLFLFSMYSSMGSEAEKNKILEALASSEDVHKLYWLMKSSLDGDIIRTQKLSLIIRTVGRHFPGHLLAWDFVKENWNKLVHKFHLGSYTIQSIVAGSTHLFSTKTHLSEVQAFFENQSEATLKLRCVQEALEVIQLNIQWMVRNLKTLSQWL
Method: Male Swiss Webster mice weighing 18-24 g were used in the 4 plate studies. Animals were housed in groups of 15 in an AAALAC-accredited facility (Wyeth Research, Princeton, N.J.) with food and water available ad libitum. Animals were maintained on a 12-hour light/dark cycle (lights on at 0600) with all studies performed during the light phase. On the day of experiments, mice were injected with AT4 (0, 1, 3 and 10 mg/kg) 30 minutes before the start of the study. Initially, mice were individually placed in a plexiglass cage (18×25×16 cm) with a floor consisting of four rectangular metal plates (8×11 cm), which are wired to a shock generator (Med Associates). In each experiment, mice were placed into the chamber and given an 18-sec habituation period, which was followed by a 1-min test session. After the habituation period, an electric shock (0.8 mA) was delivered for 3.0 sec when mice crossed from one plate to another. The crossing from one plate to the next is referred to as a “punished crossing.” The number of punished crossings during a 1-min test period was recorded by a computer. The mean number of punished crossings for each group was expressed as a percentage of the value observed in the control animals. Data were subjected to an overall one-way analysis of variance (ANOVA) and post-hoc comparisons were made by a contrast using least squares. Significant differences in treatment occurred when p<0.05 compared to vehicle.

[2] = biological target: T2, oxytocin receptor (Mus musculus, UniProt P97926); test: mouse 4-plate model, AT4 with the oxytocin receptor antagonist WAY-162720 (Example 2); assay type: in vivo; conditions: AT4 3 mg/kg alone, acute, 30 min before test
T2 construct: from tissue; host or cells: whole living Swiss Webster mouse (in vivo behavioural test)
T2 sequence (P97926 1-388): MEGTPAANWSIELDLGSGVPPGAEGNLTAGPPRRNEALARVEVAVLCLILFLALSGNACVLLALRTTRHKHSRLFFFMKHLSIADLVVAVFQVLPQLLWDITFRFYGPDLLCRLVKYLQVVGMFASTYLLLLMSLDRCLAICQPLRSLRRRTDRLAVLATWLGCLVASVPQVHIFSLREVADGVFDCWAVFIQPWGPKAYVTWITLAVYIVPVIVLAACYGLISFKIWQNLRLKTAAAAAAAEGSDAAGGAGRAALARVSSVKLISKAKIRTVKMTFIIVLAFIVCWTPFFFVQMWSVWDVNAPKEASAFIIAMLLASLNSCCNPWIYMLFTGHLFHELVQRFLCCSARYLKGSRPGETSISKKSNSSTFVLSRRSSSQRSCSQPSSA
Method: Male Swiss Webster mice weighing 18-24 g were used in the 4 plate studies. […] Animals were maintained on a 12-hour light/dark cycle (lights on at 0600) with all studies performed during the light phase. On the day of experiments, mice were injected with AT4 (0, 1, 3 and 10 mg/kg) 30 minutes before the start of the study. Initially, mice were individually placed in a plexiglass cage (18×25×16 cm) with a floor consisting of four rectangular metal plates (8×11 cm), which are wired to a shock generator (Med Associates). In each experiment, mice were placed into the chamber and given an 18-sec habituation period, which was followed by a 1-min test session. After the habituation period, an electric shock (0.8 mA) was delivered for 3.0 sec when mice crossed from one plate to another. The crossing from one plate to the next is referred to as a “punished crossing.” The number of punished crossings during a 1-min test period was recorded by a computer. […] Data were subjected to an overall one-way analysis of variance (ANOVA) and post-hoc comparisons were made by a contrast using least squares. Significant differences in treatment occurred when p<0.05 compared to vehicle.
For these studies, the same 4-plate procedures were used as described in Example 1, above. […] A 3-sec time followed the delivery of each shock and a computer recorded the number of punished crossings during a 1-min test period. […]

number of punished crossings compared to vehicle ([1]; AT4 3 mg/kg): significantly (p<0.05) increased
number of punished crossings compared to vehicle ([1]; AT4 10 mg/kg): significantly (p<0.05) increased
anxiolytic-like effect in the 4-plate model, dose dependence ([1]; AT4 1, 3 and 10 mg/kg subcutaneous, FIG. 1): dose-dependent
number of punished crossings compared to vehicle control [2]: increased
SMILES: CC[C@H](C)[C@H](NC(=O)[C@H](Cc1ccc(O)cc1)NC(=O)[C@@H](N)C(C)C)C(=O)N[C@@H](Cc1cnc[nH]1)C(=O)N1CCC[C@H]1C(=O)N[C@@H](Cc1ccccc1)C(=O)O [AT4, Val-Tyr-Ile-His-Pro-Phe]
